Data: patent publication US20200129499A1, “COMBINATION OF TASQUINIMOD OR A PHARMACEUTICALLY ACCEPTABLE SALT THEREOF AND A PD-1 AND/OR PD-L1 INHIBITOR, FOR USE AS A MEDICAMENT” (ACTIVE BIOTECH AB, priority 2015, published 2020)

Experiments:
CD8+ T cells = assay: Ex vivo T cell proliferation assay with tumor-derived CD11b+ cells; assay type: cell-based, mouse; conditions: CD11b+ from treated established tumors co-cultured 1:1 with T cells, 72 h; FIGS. 8A and B
Source text: FIG. 7: Combination of tasquinimod with Anti-PD-L1 increases cytotoxic T cell activity. (A) Quantitative data of the percentage of tumor-infiltrating CD8+ cells on day 15 after treatment (n=6). (B) Left panel: Representative images showing immunostaining for granzyme B (brown staining) in tumors from control or treated groups. Original magnification: X200, inset: tumor overview. Scale bar: 5θ μm. Right panel: Quantification of granzyme B positive cells on tumor sections expressed as a percentage of total cells using an antibody against granzyme B (Kruskal-Wallis test; *, P=0.0326). (C) The concentration levels (pg/ml) of the following cytokines: IL-1β, IL-7, IL-1 2(p70) and IL-15 in tumor lysate from each group were quantified using Luminex Technology (n=5). (D) Splenocytes (n=5) from each group were stimulated with PMA/ionomycin in the presence of Brefeldin A. IL-2, TNF-a and IFN-γ production was examined by intracellular staining. […] Asterisks denote statistical significance using one-way ANOVA (*, P<0.05; **, P<0.005). […] P values were calculated based on Kruskal-Wallis test between the different groups (*, P<0.05; **, P<0.005). […] (A) Representative histograms obtained by FACS analysis showing the fluorescence intensity of CFSE-T cells gated on CD8+. […] (C) IFN-γ secretion in the supernatant of the co-culture is measured 72 hours following incubation at 37° C. using Luminex Technology. […]

MBT-2 tumors = assay: Subcutaneous MBT-2 tumor growth in mice, initial combination study (Example 1); assay type: in vivo, mouse
Method: Six to seven-week old C3H/HeN male mice were purchased from JANVIER Labs. MBT-2, a mouse bladder cancer cell line (M. S. Soloway., Intravesical and systemic chemotherapy in the management of superficial bladder cancer, Urol. Clin. North Am. 11 (4):623-635, 1984), was provided from JCRB Cell Bank and was cultured in Eagle's minimal essential medium (Life Technologies) supplemented with 10% fetal bovine serum.
1×10^6 cells were injected subcutaneously into the flanks of mice and were allowed to grow until tumors reached a volume between 40 and 130 mm^3 (around day 10-1 1 post tumor cell inoculation).
Tumor volumes in mm^3 were assessed by caliper measurements and were calculated by the formula=(Width)^2×Length 12.
As mentioned in Table 2, the mice were treated with tasquinimod (30 mg/kg) p.o. (per os, i.e. oral administration) twice a day. For the blockade of PD-L1, 200 μg of the […] (clone 10F.9G2; Bio-XCell) was administered i.p. (intraperitoneally) to mice every 3 days. All studies were approved by the Bioethics committee of IPSEN (CE2A) and by the French Ministry of Agriculture and Fisheries' veterinary services.

## COc1cccc2c1c(O)c(C(=O)N(C)c1ccc(C(F)(F)F)cc1)c(=O)n2C [tasquinimod, 4-hydroxy-5-methoxy-N,1-dimethyl-2-oxo-N-[4-(trifluoromethyl)phenyl]-1,2-dihydroquinoline-3-carboxamide]
CD8+ T cells
  proliferation of stimulated CD8+ T cells ex vivo: limited ability
MBT-2 tumors; day 0 post tumor cell inoculation (before treatment)
  Average of tumor volumes: 0 mm^3
MBT-2 tumors; day 10 post tumor cell inoculation
  Average of tumor volumes: 49 mm^3
MBT-2 tumors; day 11 post tumor cell inoculation
  Average of tumor volumes: 61 mm^3
MBT-2 tumors; day 13 post tumor cell inoculation
  Average of tumor volumes: 180 mm^3
MBT-2 tumors; day 14 post tumor cell inoculation
  Average of tumor volumes: 225 mm^3
MBT-2 tumors; day 15 post tumor cell inoculation
  Average of tumor volumes: 309 mm^3
MBT-2 tumors; day 17 post tumor cell inoculation
  Average of tumor volumes: 390 mm^3
MBT-2 tumors; tasquinimod 30 mg/kg p.o. twice a day, antibody 200 μg i.p. every 3 days, from day 10-11
  impact on tumor growth of MBT-2 tumors: slight non-significant impact
